Results from PMC9769502 (Microbiology Spectrum, 2022).
Where two headings read alike, the source gives them in different places. No end group written: not given here.

Assays:
[1] = system: Leishmania donovani axenic amastigotes
Method: We utilized a previously developed high-throughput screening assay using transgenic axenic amastigotes expressing a red fluorescent protein, mCherry. Changes in mCherry fluorescence were normalized to 50 μM miltefosine in order to quantify parasite inhibition ([52]). In total, 5 scaffold 25-mer peptides and 475 synthetic 25-mer peptide variants were screened (Fig. 1). […] The assay was repeated, and the average percent parasite killing was determined.
Axenic amastigotes were differentiated as described previously ([69]).
Axenic amastigotes were differentiated as described previously ([69]); briefly, transgenic L. donovani promastigotes expressing mCherry were differentiated by pH and temperature shifts. Amastigotes were seeded into 96-well plates at 5 × 10^6 cells/mL and incubated for 48 h in the presence of decreasing drug concentrations, starting at 20 μM, along with the appropriate solvent controls. Fluorescence was monitored (587-nm excitation/610-nm emission) over 48 h using a FlexStation 3 benchtop multimode reader (Molecular Devices). […] Thus, changes in mCherry fluorescence were normalized to the 50 μM miltefosine control in order to quantify parasite inhibition. Each assay was performed in triplicate. The IC50 values were calculated by nonlinear regression analysis using GraphPad Prism 9.0 for Windows.

THP-1 macrophages = test: Cytotoxicity against THP-1 macrophages (CellTiter-Blue); type: cell-based, human
Method: THP-1 (human acute monocytic leukemia-derived) host macrophages were cultured in RPMI 1640 supplemented with 10% FCS and a penicillin-streptomycin antibiotic solution (10,000 U/mL penicillin, 10,000 μg/mL streptomycin) at 37°C with 5% CO2. THP-1 cells were incubated with 0.25 μM phorbol 12-myristate […] (PMA) for 48 h to differentiate into mature macrophages. Differentiated macrophages were seeded into 96-well plates at 5 × 10^6 cells/mL and incubated for 48 h in the presence of 20 μM antimicrobial peptides along with the appropriate solvent controls. Cell viability assays were conducted using CellTiter-Blue (Promega), based on resazurin reduction. After the 48-h incubation period, CellTiter-Blue reagent was added to cells for 4 h at 37°C, and fluorescence was measured (555-nm excitation/580-nm emission) using a FlexStation 3 benchtop multimode reader (Molecular Devices). Each assay was performed in triplicate. The CC50 values were calculated by nonlinear regression analysis using GraphPad Prism 9.0 for Windows.

[2] = read-out: Axenic amastigotes Mean IC50 ± SD
[3] = read-out: Axenic amastigotes Mean IC50 ± SD, L. donovani mCherry axenic amastigotes, 48 h, fluorescence normalized to 50 μM miltefosine, highest concentration 20 μM, mean of three replicates

Row | Sequence | IC50 [1, 2] [µM] | THP-1 macrophage CC50 (THP-1 macrophages) | IC50 [1, 3] [µM] | IC50 ([1]; 48 h) [µM] | THP-1 macrophage CC50 (THP-1 macrophages; 48 h) [µM]
1 | AGANRLTKELLEYLRKFGKIWRKAW [Syn-xiamencin-40] | 1.31 | < 20 µM |  |  | 
2 | AGANRLTKELLEYLRKFWKIARKAW [Syn-xiamencin-24] |  | < 20 µM | 1.63 |  | 
3 | AGANRLWKELLEYLRKFGKIARKAW [Syn-xiamencin-48] | 2.18 | < 20 µM |  |  | 
4 | AGAQRLTKELLEYLRKFGKIWRKAW [Syn-xiamencin-39] | 6.81 | < 20 µM |  |  | 
5 | AGAQRLTKELLEYLRKFWKIARKAW [Syn-xiamencin-23] |  | < 20 µM | 1.14 |  | 
6 | AGAQRLTLYLKEELRKRWKKAFIAW [Syn-xiamencin-18] |  | < 20 µM | 0.65 |  | 
7 | AGAQRLWKELLEYLRKFGKIARKAW [Syn-xiamencin-47] | 2.68 | < 20 µM |  |  | 
8 | AGKEKIRKKLKNEIKKKGRKAWIAW [Syn-safencin 72] |  | > 20 µM |  | 12.07 ± 0.09 | >20
9 | AGKEKIRKKLKNEIKKKGRKWVIAW [Syn-safencin-64] |  | < 20 µM | 0.33 |  | 
10 | AGKEKIRKKLKNEWKKKGRKAVIAW [Syn-safencin-48] |  | < 20 µM | 1.75 |  | 
11 | AGKEKIRKKWKNEIKKKGRKAVIAW [Syn-safencin-40] |  | < 20 µM | 2.12 |  | 
12 | AGKEKIRQFLKKKIQEGKKRATIAW [Syn-larvacin-76] |  | < 20 µM | 1.58 |  | 
13 | AGKEKIRQFLKKKIQEKGKRATIAW [Syn-larvacin-73] |  | < 20 µM | 0.39 |  | 
14 | AGKEKIRQFLKKTIQEKGKRAKIAW [Syn-larvacin-77] |  | < 20 µM | 10.3 |  | 
15 | AGKEKIRQYLKNEIKKKGRKAVWAW [Syn-safencin 77] |  | > 20 µM |  | 0.39 ± 0.13 | >20
16 | AGKEKIRQYLKNEIKKKGRKAWIAW [Syn-safencin-69] |  | < 20 µM | 3.37 |  | 

Row | Sequence | IC50 [1, 2] [µM] | THP-1 macrophage CC50 (THP-1 macrophages) | IC50 [1, 3] [µM] | IC50 ([1]; 48 h) [µM] | THP-1 macrophage CC50 (THP-1 macrophages; 48 h) [µM]
17 | AGKEKIRQYLKNEIKKKGRKWVIAW [Syn-safencin-61] |  | < 20 µM | 3.56 |  | 
18 | AGKEKIRQYWKNEIKKKGRKAVIAW [Syn-safencin-37] |  | < 20 µM | 5.21 |  | 
19 | AGKEKWRKKLKNEIKKKGRKAVIAW [Syn-safencin-32] |  | < 20 µM | 4.62 |  | 
20 | AGKETIFQRLKKKIQEKGKRATIAW [Syn-larvacin-3] |  | below 20 μM | 0.36 |  | 
21 | AGKETIFQRLKKKIQEKWKRATIAW [Syn-larvacin-43] |  | < 20 µM | 0.22 |  | 
22 | AGKETIFWRLKKKIWEKGKRATIAW [Syn-larvacin-51] |  | < 20 µM | 0.42 |  | 
23 | AGKETIRKYLKNEIKKKGRKAVIAW [Syn-safencin 6] |  | > 20 µM |  | 0.48 ± 0.07 | >20
24 | AGKETIRKYLKNEIKKKGRKAVWAW [Syn-safencin 78] |  | > 20 µM |  | 0.94 ± 0.14 | >20
25 | AGKETIRQFLKKKIQEGKKRATIAW [Syn-larvacin-4] |  | below 20 μM | 1.09 |  | 
26 | AGKETIRQFLKKKIQEGKKRATIWW [Syn-larvacin-68] |  | < 20 µM | 1.31 |  | 
27 | AGKETIRQFLKKKIQEKGKIAKRAW [Syn-larvacin-94] |  | < 20 µM | 18.2 |  | 
28 | AGKETIRQFLKKKIQEKGKIATRWW [Syn-larvacin-70] |  | < 20 µM | 0.3 |  | 
29 | AGKETIRQFLKKKIQEKGKRATIWW [Syn-larvacin-65] |  | < 20 µM | 0.31 |  | 
30 | AGKETIRQFLKKKIQEKKKRATIAW [Syn-larvacin-81] |  | < 20 µM | 0.26 |  | 
31 | AGKETIRQFLKKKIQEWKKRATIAW [Syn-larvacin-44] |  | < 20 µM | 0.47 |  | 
32 | AGKETIRQFLKKRIQEKGKRAKIAW [Syn-larvacin-93] |  | < 20 µM | 2.46 |  | 
